Data reported in PubChem BioAssay AID2260 (Sanford-Burnham Center for Chemical Genomics, 2010).
Calls of active or inactive are those of the source. No rule for the calls is given here.

The compounds below were run on MCF-7/NOD2 cells, MDP-induced IL-8 secretion (assay: NOD2 pathway IL-8 secretion inhibitors – MCF-7/NOD2 cells, MDP stimulus, SAR follow-up (AID 2260)).

Row | SMILES | IC50
1 | COc1ccc(S(=O)(=O)n2c(N)nc3ccccc32)cc1 | > 5 µM (inactive)
2 | Cc1ccc(S(=O)(=O)n2c(N)nc3ccccc32)cc1 | > 25 µM (inactive)
3 | O=C(O)c1c(NC(=O)N2CCOCC2)sc2c1CCCC2 | > 25 µM (inactive)
4 | Nc1nc2ccccc2n1S(=O)(=O)c1ccccc1 | > 5 µM (inactive)
5 | Nc1nc2ccccc2n1S(=O)(=O)c1ccc([N+](=O)[O-])cc1 | > 5 µM (inactive)
6 | Cc1ccc(S(=O)(=O)n2c(N)nc3cc(C)c(C)cc32)cc1 | > 5 µM (inactive)
